One molecule from paper PMC2195872 (The Journal of Experimental Medicine, 2000) can be followed below.

Structures are written as SMILES.

As usually defined, the IC50 is the point on the concentration scale where inhibition reaches its midpoint. Read a high IC50 as lower potency.

The test addresses LTB4 receptor (Homo sapiens, UniProt Q15722). The test is described as follows: [3H]LTB4 competition radioligand binding on HEK293 cells. The test is classed as cell-based.

LTB4 receptor, sequence (Q15722 whole entry): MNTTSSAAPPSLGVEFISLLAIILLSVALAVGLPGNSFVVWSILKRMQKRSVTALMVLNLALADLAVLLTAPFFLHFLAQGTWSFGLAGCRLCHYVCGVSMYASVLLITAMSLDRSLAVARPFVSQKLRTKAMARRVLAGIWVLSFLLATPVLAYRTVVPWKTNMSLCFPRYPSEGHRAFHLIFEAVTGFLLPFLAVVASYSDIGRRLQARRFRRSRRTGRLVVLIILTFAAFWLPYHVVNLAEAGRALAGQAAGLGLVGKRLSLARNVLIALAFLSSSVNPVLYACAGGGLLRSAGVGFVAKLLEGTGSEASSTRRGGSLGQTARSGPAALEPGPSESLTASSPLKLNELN

Turning to `CC/C=C\C/C=C\C[C@@H](O)/C=C/C=C/C=C\[C@@H](O)CCCC(=O)O` [LTB5], the IC50 was around 500 nM.
